Values of other authors as cited in patent US20220313614A1, “EN[…] […] AND METHODS OF PREPARATION THEREOF” (Altria Client Services LLC, priority 2021, published 2022).

Conditions: free base (non-protonated)

In the case of `CN1CCCC1c1cccnc1` (stereo not shown) [Free-base nicotine, 3-(1-methyl-2-pyrrolidinyl) pyridine], the pKa value is listed as “about 8”.
